± gives the expanded uncertainty stated by the source.
Key:
[1] = 298.15 K; 101.33 kPa; Liquid; Pycnometric method
[2] = refractive index (Na D-line) (dimensionless); details: 298.15 K; 101.33 kPa; Liquid; Standard Abbe refractometry

mass density [1]: 1045 ± 8 kg/m3 | refractive index [2]: 1.37 ± 0.001
SMILES: CC(=O)O [acetic acid]

Reference: the NIST ThermoML archive (doi:10.1021/je600527c)
